According to patent US20230087388A1, “INHIBITORS OF HUMAN DEUBIQUITINASES FOR THE TREATMENT OF CORONAVIRAL INFECTIONS” (Immunologik GmbH, priority 2020, published 2023):
Entries after “also recorded” stand apart in the source; their conditions may differ.

Columns and labels:
Vero-B4 cells = settings: WST assay, 3 days
SARS-CoV-2 [1] = test: qRT-PCR of viral RNA from SARS-CoV-2 infected Vero-B4 cells; type: cell-based; settings: 10 μM, 3 d treatment, 3 independent experiments; compared with 10 μM chloroquine or hydroxychloroquine
Description: Therefore, virus-containing samples were quantified by real-time PCR AgPath-ID One-Step RT-PCR Kit from Ambion (Cat: 4387424) allowing reverse transcription, cDNA synthesis and PCR amplification in a single step. Samples were analyzed by 7500 software v2.3 (applied Bioscience). PCR primers were used according to 44: RdRp_fwd: 5′-GTG-ARA-TGG-TCA-TGT-GTG-GCG-G-3′ and RdRp_rev 5′-CAR-ATG-TTA-AAS-ACA-CTA-TTA-GCA-TA-C-3′. Probe was 5′-CAG-GTG-GAA-/ZEN/CCT-CAT-CAG-GAG-ATG-C-3′ (Label: FAM/IBFQ Iowa Black FQ). As positive control a specific target for E and RdRp gen of SARS-CoV2 was used and made by Integrated DNA Technologies. Control: 5′-TAA-TAC-GAC-TCA-CTA-TAG-GGT-ATT-GAG-TGA-AAT-GGT-CAT-GTG-TGG-CGG-TTC-ACT-ATA-TGT-TAA-ACC-AGG-TGG-AAC-CTC-ATC-AGG-AGA-TGC-CAC-AAC-TGC-TTA-TGC-TAA-TAG-TGT-TTT-TAA-CAT-TTG-GAA-GAG- ACA-GGT-ACG-TTA-ATA-GTT-AAT-AGC-GTA-CTT-CTT-TTT-CTT-GCT-TTC-GTG-GTA-TTC-TTG-CTA-GTT-ACA-CTA-GCC-ATC-CTT-ACT-GCG-CTT-CGA-TTG-TGT-GCG-TAC-TGC-TGC-AAT-ATT-GTT-3′. The annealing temperature was 60° C. The experimental procedure containing the infection, treatment and isolation of virions was the same as described for the Western blot analysis. The evaluation of qRT-PCR analysis clearly confirmed the results of the Western blot experiments.

SARS-CoV-2 [2] = type: cell-based
[3] = target: T1, papain-like protease (PLpro) of SARS-CoV-2 (Severe acute respiratory syndrome coronavirus 2, UniProt P0DTD1); type: biochemical
T1 construct: They are the papain-like proteases (PLpro), encoded within nsp3; purchased R&D biosystems E-611-050

| SMILES | concentration at which a clear toxic effect started (Vero-B4 cells) | amount of viral RNA (qRT-PCR) (SARS-CoV-2 [1]) | inhibition of replication of SARS-CoV-2 in infected Vero-B4 cells (SARS-CoV-2 [2]; 10 μM PR-619) | SARS-CoV-2 proteins in Western Blot, virus and cell fraction (SARS-CoV-2 [2]; 10 μM PR-619, infected Vero-B4 cells, 3 dpi) | generation of SARS-CoV-2 proteins, densitometric evaluation (nucleoprotein virus fraction, spike S1 cell fraction) (SARS-CoV-2 [2]; 10 μM, 3 d treatment, 3 independent experiments, compared with 10 μM chloroquine or hydroxychloroquine) | inhibitory effect on SARS-CoV-2 PLpro activity ([3]; 20 nM recombinant PLpro, ISG15-AMC substrate, 30 min pretreatment, 120 min readout, PR-619 1.25-10 μM, P5091 1.5-6 μM) | reduction of activity of PLpro from SARS-CoV-2 (AUC) ([3]; 6 μM P5091, n=3) [%] | reduction in the release of SARS-CoV-2 proteins (densitometric analysis) (SARS-CoV-2 [2]; 1.25 μM P5091, 3 d treatment, 3 independent experiments, untreated = 100%) [%] | release of SARS-CoV-2 proteins / replication of SARS-CoV-2 (SARS-CoV-2 [2]; 5 μM P5091, infected Vero-B4 cells, 3 d treatment) | release of viral proteins in Western Blot (SARS-CoV-2 [2]; different concentrations of P5091, 3 d treatment) |
| --- | --- | --- | --- | --- | --- | --- | --- | --- | --- | --- |
| N#CSc1cc(SC#N)c(N)nc1N [PR-619, 2,6-diaminopyridine-3,5-bis(thiocyanate)] | over 20 μM | significantly reduced | broadly inhibit | clear reduction | significantly inhibited | – | – | – | – | – |
| CC(=O)c1cc([N+](=O)[O-])c(Sc2cccc(Cl)c2Cl)s1 [P5091, 1-[5-[(2,3-dichlorophenyl)thio]-4-nitro-2-thienyl]-ethanone] | – | – | – | – | – | dose dependent reduction; also recorded: direct inhibitory action | 80 | 90 | complete block; also recorded: nearly completely inhibit | dose-dependent decrease |
